Results reported in patent publication US7622487B2, “Piperidine derivative, process for producing the same, and use” (Takeda Pharmaceutical Company Limited, priority 2002, dated 2009).
Counter-ions that a name gives are not always drawn.

Biological target: T1, substance P receptor from human lymphoblast cells (IM-9) (Homo sapiens, UniProt P25103)
T1 construct: The receptor was prepared from human lymphoblast cells (IM-9); endogenous in cells; host or cells: IM-9 human lymphoblast cells (crude membrane fraction, 40,000xG pellet)
T1 sequence (P25103 whole entry): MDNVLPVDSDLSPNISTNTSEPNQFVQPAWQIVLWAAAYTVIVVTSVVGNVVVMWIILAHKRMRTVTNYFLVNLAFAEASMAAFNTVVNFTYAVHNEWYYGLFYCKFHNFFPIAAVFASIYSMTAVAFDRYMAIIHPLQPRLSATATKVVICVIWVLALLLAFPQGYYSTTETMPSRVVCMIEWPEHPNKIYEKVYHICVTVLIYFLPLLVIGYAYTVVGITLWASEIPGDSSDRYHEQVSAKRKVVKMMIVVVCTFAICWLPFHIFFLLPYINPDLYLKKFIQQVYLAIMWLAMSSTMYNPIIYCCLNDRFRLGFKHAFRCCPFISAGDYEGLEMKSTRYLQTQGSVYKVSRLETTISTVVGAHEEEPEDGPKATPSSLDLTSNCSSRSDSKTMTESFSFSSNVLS
Test: Radioligand receptor binding inhibitory activity (125I-BHSP binding, receptor from human lymphoblast cells (IM-9))
Conditions: not given
Method: Radioligand receptor binding inhibitory activity (Binding inhibitory activity using receptor from human lymphoblast cells (IM-9))
The method of M. A. Cascieri et al., “Molecular Pharmacology 42, p. […] The receptor was prepared from human lymphoblast cells (IM-9). IM-9 cells (2×10^5 cells/ml) were inoculated and incubated for 3 days (one liter), which was then subjected to centrifuge for 5 minutes at 500×G to obtain cell pellets. […] The residue was twice washed with 30 ml of the above-mentioned buffer, which was then preserved frozen (−80° C.) as a specimen of the receptor.
The specimen was suspended in a reaction buffer (50 mM Tri-HCl buffer (pH 7.4), 0.02% bovine serum albumin, 1 mM phenylmethylsulfonyl fluoride, 2 μg/ml chymostatin, 40 μg/ml bacitracin and 3 mM manganese chloride) to have protein in the concentration of 0.5 mg/ml of protein and 100 μl portion of the suspension was used in the reaction. […] The amount of nonspecific binding was determined by adding substance P at a final concentration of 2×10^−6 M.
After the reaction, using a cell harvester (290 PHD, Cambridge Technology, Inc, U.S.A.), rapid filtration was carried out through a glass filter (GF/B, Whatman, U.S.A.) to stop the reaction. After washing three times with 250 μl of 50 mM Tris-HCl buffer (pH 7.4) containing 0.02% bovine serum albumin, the radioactivity remaining on the filter was determined with a gamma counter. Before use, the filter was immersed in 0.1% polyethyleneimine for 24 hours and air-dried.

Row | Structure (SMILES) | IC50 [pM]
1 | COc1ccc(-n2nnnc2C(F)(F)F)cc1CNC1CCN(C(=O)CCNC(C)=O)CC1c1ccccc1 (racemic) [Example 761] | 54
2 | COc1ccc(-n2nnnc2C(F)(F)F)cc1CNC1CCN(C(C)=O)CC1c1ccccc1 (racemic) [Example 762] | 49
3 | COc1ccc(-n2nnnc2C(F)(F)F)cc1CNC1CCN(C(=O)CNC(C)=O)CC1c1ccccc1 (racemic) [Example 753] | 73

Same assay, conditions: 125I-BHSP binding, receptor from human lymphoblast cells (IM-9), 25° C., 30 minutes; read-out: IC50 Value

Row | Structure (SMILES) | IC50 [pM]
4 | COCC(=O)N1CC[C@H](NCc2cc(-n3nnnc3C(F)(F)F)ccc2OC)[C@H](c2ccccc2)C1 (single isomer, unassigned) [Example 78, (+)-cis-1-(Methoxyacetyl)-N-[2-methoxy-5-[5-(trifluoromethyl)-1H-tetrazol-1-yl]benzyl]-3-phenyl-4-piperidineamine hydrochloride] | 60
5 | CCNC(=O)N1CCC(NCc2cc(-n3nnnc3C(F)(F)F)cc3c2OCC3)C(c2ccccc2)C1 (single isomer, unassigned; (-)) [Example 84, (−)-cis-N-Ethyl-3-phenyl-4-[[[5-[5-(trifluoromethyl)-1-H-tetrazol-1-yl]-2,3-dihydro-1-benzofuran-7-yl]methyl]amino]-1-piperidinecarboxamide hydrochloride] | 51
6 | CC(=O)N1CCC(C(=O)N2CC[C@H](NCc3cc(-n4nnnc4C(F)(F)F)cc4c3OCC4)[C@H](c3ccccc3)C2)CC1 (single isomer, unassigned) [Example 88, (−)-cis-1-[(1-Acetyl-4-piperidinyl)carbonyl]-3-phenyl-N-[[5-[5-(trifluoromethyl)-1H-tetrazol-1-yl]-2,3-dihydro-1-benzofuran-7-yl]methyl]-4-piperidineamine hydrochloride] | 60
7 | CC(=O)N1CCC(C(=O)N2CC[C@H](OCc3cc(C(F)(F)F)cc(C(F)(F)F)c3)[C@H](c3ccccc3)C2)CC1 [Example 70, (+)-(3R,4S)-1-[(1-Acetyl-4-piperidinyl)carbonyl]-4-[[3,5-bis(trifluoromethyl)benzyl]oxy]-3-phenylpiperidine] | 150
8 | COc1ccc(-n2nnnc2C(F)(F)F)cc1CNC1CCN(C(=O)CS(C)(=O)=O)CC1c1ccccc1 (racemic) [Example 763] | 80
9 | CCNC(=O)N1CC[C@H](NCc2cc(-n3nnnc3C(F)(F)F)ccc2OC)[C@H](c2ccccc2)C1 (single isomer, unassigned) [Example 75, (+)-cis-N-Ethyl-4-[[2-methoxy-5-[5-(trifluoromethyl)-1H-tetrazol-1-yl]benzyl]amino]-3-phenyl-1-piperidinecarboxamide hydrochloride] | 25
10 | CNC(=O)N1CCC(NCc2cc(-n3nnnc3C(F)(F)F)cc3c2OCC3)C(c2ccccc2)C1 (racemic) [Example 722] | 110
11 | CCNC(=O)N1CCC(NCc2cc(OC(F)(F)F)ccc2OC)C(c2ccccc2)C1 (single isomer, unassigned; (+)) [Example 613, (+)-cis-N-Ethyl-4-[[2-methoxy-5-(trifluoromethoxy)benzyl]amino]-3-phenyl-1-piperidinecarboxamide] | 70

The remaining lines, values ahead:

Row | IC50 [pM] | Structure (SMILES)
12 | 230 | CNC(=O)N1CCC(OCc2cc(C(F)(F)F)cc(C(F)(F)F)c2)C(c2ccccc2)C1 (single isomer, unassigned; (+)) [Example 413, (+)-cis-4-[[3,5-Bis(trifluoromethyl)benzyl]oxy]-N-methyl-3-phenyl-1-piperidinecarboxamide]
13 | 58 | COc1ccc(-n2nnnc2C(F)(F)F)cc1CNC1CCN(C(=O)C2CCN(C(C)=O)CC2)CC1c1ccccc1 (single isomer, unassigned; (-)) [Example 81, (−)-cis-1-[(1-Acetyl-4-piperidinyl)carbonyl]-N-[2-methoxy-5-[5-(trifluoroinethyl)-1H-tetrazol-1-yl]benzyl]-3-phenyl-4-piperidineamine hydrochloride]
14 | 67 | COc1ccc(-n2nnnc2C(F)(F)F)cc1CNC1CCN(C(=O)Cn2cnnn2)CC1c1ccccc1 (racemic) [Example 757]
15 | 85 | COc1ccc(-n2nnnc2C(F)(F)F)cc1CNC1CCN(C(=O)CO)CC1c1ccccc1 (racemic) [Example 760]
16 | 32 | CNC(=O)N1CC[C@H](NCc2cc(-n3nnnc3C(F)(F)F)ccc2OC)[C@H](c2ccccc2)C1 (single isomer, unassigned) [Example 72, (+)-cis-4-[[2-Methoxy-5-[5-(trifluoromethyl)-1H-tetrazol-1-yl]benzyl]amino]-N-methyl-3-phenyl-1-piperidinecarboxamide hydrochloride]
17 | 42 | COc1ccc(-n2nnnc2C(F)(F)F)cc1CNC1CCN(C(=O)CN2C(=O)CCC2=O)CC1c1ccccc1 (racemic) [Example 764]
18 | 96 | COc1ccc(-n2nnnc2C(F)(F)F)cc1CNC1CCN(C(=O)C2CCN(S(C)(=O)=O)CC2)CC1c1ccccc1 (racemic) [Example 755]

System: not given
Test: not given
Conditions: not given

Row | melting point [°C] | Structure (SMILES)
19 | 160 to 161 | CNC(=O)N1CC[C@H](OCc2cc(C(F)(F)F)cc(C(F)(F)F)c2)[C@H](Cc2ccccc2)C1 (relative stereo) [Example 405, cis-3-Benzyl-4-[[3,5-bis(trifluoromethyl)benzyl]oxy]-N-methyl-1-piperidinecarboxamide]
